Experimental findings from US5106976A, “Fused pyrazine sulfoxide derivatives for use as antiulcer agents” (Nippon Chemiphar Co., Ltd., priority 1986, dated 1992) are described below.

Molecules are shown by their SMILES. Where two headings read alike, the source gives them in different places.

Assay [1] concerns secretion of gastric acid. As to the kind of experiment: Inhibitory action against secretion of gastric acid (pylorus-ligated rats, Shay method). Format: in vivo, male Donryu rats. To be noted: read-out: Suppressive action against secretion of gastric acid. The method, then: Under ether anesthesia, the pylorus of the rat was ligated and each test compound was administered intraduodenally. Four hours later, each rat was killed and the stomach was removed to collect the gastric juice. The inhibitory action was determined by comparing the acid output which was obtained by titration to pH 7.0 with 0.1-N NaOH by means of an automatic titrator, with the corresponding value of a control rat prepared in the same manner except that a vehicle alone was administered.

Assay [2] can be described thus: Water-immersion stress-induced erosions (gastric lesion model). Format: in vivo, male Donryu rats. To be noted: rat, 10 minutes before stressing, 7 hours immersion. The method, then: Two different types of gastric lesion models were induced in male Donryu rats (180 to 240 g) which had been deprived of food but allowed free acess to water for 24 to 48 hours prior to experiments. Rats fasted for 24 hours before experiments were placed in a restraint cage. The animals were immersed vertically to the level of the xiphoid process in a water bath (21° C.) for 7 hours and then killed. The stomach of each rat was removed and inflated by injecting 10 ml of 1% formalin to fix the inner and outer layers of the gastric walls. This formalin treatment was performed in all of the following experiments. Subsequently, the stomach was incised along a greater curvature and examined for any erosion in the glandular portion. Each test compound or a vehicle alone was given orally 10 minutes before stressing.

Assay [3] is described as follows: HCl-ethanol-induced erosions (gastric lesion model). Conditions: rat, 30 minutes before ethanol treatment. Format: in vivo, male Donryu rats. The method, then: Two different types of gastric lesion models were induced in male Donryu rats (180 to 240 g) which had been deprived of food but allowed free acess to water for 24 to 48 hours prior to experiments.
A hydrochloric acid-ethanol solution (150 mM HCl in 60% ethanol) was given orally to rats in a dose of 1 ml/200 g, which rats had been fasted for 24 hours before experiments. One hour later, each animal was killed and the stomach was examined for any erosion in the glandular portion. Each test compound or a vehicle alone was given orally 30 minutes before ethanol treatment.

A further assay has as its target T1, H^+ +K^+ ATPase (Oryctolagus cuniculus, UniProt P27112).
T1 construct: gastric acid secretory cells of a rabbit gastric mucosa were isolated and vesicle containing H^+ +K^+ ATPase was prepared; from tissue; host or cells: rabbit gastric mucosa, acid secretory cells; vesicles by Ficoll discontinuous density gradient
Nature of the assay: H+ + K+ ATPase inhibitory effect (vesicles from rabbit gastric mucosa cells). The class given is biochemical. To be noted: 2×10^-4 M test compound, 25 min room temperature preincubation at pH 6.0; reaction pH 7.4, 37° C., 15 min. The method, then:
Following the method of Forte et al [J. Applied Physiol., 32, 714-717 (1972)], gastric acid secretory cells of a rabbit gastric mucosa were isolated and vesicle containing H^+ +K^+ ATPase was prepared by centrifuging the cells in Ficoll of discontinuous density gradient. After the enzyme was incubated at room temperature for 25 min. in 0.5 ml of a solution which contained 5 mM of an imidazole buffer (pH 6.0) and 2×10^-4 M of each test compound, the mixture was heated to 37° C. at which it was allowed to stand for further 5 min. To the mixture was added 0.5 ml of a solution which contained 4 mM of magnesium chloride, 80 mM of an imidazole buffer (pH 7.4), 20 mM of potassium chloride and 4 mM of ATP. The resulting mixture was caused to react at 37° C. for 15 min., and 1 ml of a 24% solution of trichloroacetic acid was then added to terminate the reaction. The inorganic phosphorus liberated was quantitatively analyzed by the method proposed by Taussky and Shorr [J. Biol. Chem., 202, 675- 685 (1953)]. The K^+ -dependent activity of the ATPase was determined by subtracting its activity obtained when no potassium chloride was contained. The results are set forth in Table 1 in which Compound Nos. 1-7 are the sulfoxide derivatives prepared in the hereinafter-described Examples 1-7, respectively.

[4] abbreviates: Rattus norvegicus, intraduodenal, 4 h.
The mark [5] stands for this setting: 100 mg/kg intraduodenal, rat, 4 hours.

Broadly, the inhibition is the drop in the measured response relative to a control, in per cent.

T1 sequence (P27112 whole entry): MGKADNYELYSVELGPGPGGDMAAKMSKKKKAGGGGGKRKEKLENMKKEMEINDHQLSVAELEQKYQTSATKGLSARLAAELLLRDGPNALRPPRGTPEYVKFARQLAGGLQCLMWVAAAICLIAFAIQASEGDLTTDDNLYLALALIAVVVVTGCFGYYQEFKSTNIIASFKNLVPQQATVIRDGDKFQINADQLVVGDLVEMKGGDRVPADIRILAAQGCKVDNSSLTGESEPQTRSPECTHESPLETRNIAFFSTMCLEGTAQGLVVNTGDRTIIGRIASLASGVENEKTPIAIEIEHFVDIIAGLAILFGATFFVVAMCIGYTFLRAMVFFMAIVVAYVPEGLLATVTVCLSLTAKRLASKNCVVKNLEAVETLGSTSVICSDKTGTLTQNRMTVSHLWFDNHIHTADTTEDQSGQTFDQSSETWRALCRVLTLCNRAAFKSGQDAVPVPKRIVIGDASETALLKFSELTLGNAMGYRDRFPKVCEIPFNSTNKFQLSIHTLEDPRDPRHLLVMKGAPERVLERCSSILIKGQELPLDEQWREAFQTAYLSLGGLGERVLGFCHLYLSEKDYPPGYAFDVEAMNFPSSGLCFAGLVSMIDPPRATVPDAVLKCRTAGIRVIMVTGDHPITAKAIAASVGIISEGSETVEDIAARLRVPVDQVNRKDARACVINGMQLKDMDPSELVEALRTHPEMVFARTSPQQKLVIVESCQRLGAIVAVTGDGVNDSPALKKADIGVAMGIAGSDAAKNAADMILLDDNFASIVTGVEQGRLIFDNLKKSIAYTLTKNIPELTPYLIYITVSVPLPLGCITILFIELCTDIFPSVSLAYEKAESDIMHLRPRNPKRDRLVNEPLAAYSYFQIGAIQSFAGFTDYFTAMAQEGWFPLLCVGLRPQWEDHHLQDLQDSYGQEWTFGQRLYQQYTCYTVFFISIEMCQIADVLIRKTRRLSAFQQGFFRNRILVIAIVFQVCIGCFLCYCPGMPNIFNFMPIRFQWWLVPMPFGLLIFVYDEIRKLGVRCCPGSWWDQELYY
T1 sequence (P18597 whole entry partner): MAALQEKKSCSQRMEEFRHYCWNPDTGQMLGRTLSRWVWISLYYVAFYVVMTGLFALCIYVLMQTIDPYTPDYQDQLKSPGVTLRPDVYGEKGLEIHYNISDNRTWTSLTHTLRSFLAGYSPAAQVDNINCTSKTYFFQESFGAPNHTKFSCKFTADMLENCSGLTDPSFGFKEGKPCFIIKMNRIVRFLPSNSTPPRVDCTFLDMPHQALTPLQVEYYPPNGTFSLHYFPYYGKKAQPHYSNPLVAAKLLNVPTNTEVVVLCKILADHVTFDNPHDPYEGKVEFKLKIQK

For `CNC(=NCCSCc1nc[nH]c1C)NC#N` [Cimetidine, N-cyano-N'-methyl-N"-[2-[[(5-methyl-1H-imidazol-4-yl)methyl]thio]-ethyl]guanidine, reference compound], in assay [1] (setting [4]), the inhibition in vivo at 10 mg/kg amounted to 25.3%, the inhibition in vivo at 30 mg/kg was 59.1% and the inhibition in vivo at 100 mg/kg is 80.3%. Also, the “Inhibition on Water-Immersion stress-induced erosions” value in assay [2] (60 mg/kg oral) was 49%. Further, in assay [2] (200 mg/kg oral), the “Inhibition on Water-Immersion stress-induced erosions” value was found to be 87%.

In the case of `CN(C)c1ccccc1C[S+]([O-])c1nc2ncccc2[nH]1` (stereo not shown) [Compound No. 1, 2-(2-dimethylaminobenzylsulfinyl)imidazo[4,5-b]pyridine], in assay [1] (10 mg/kg intraduodenal, rat, 4 hours), the inhibition in vivo at 10 mg/kg came to 53%. Besides, in assay [1] (30 mg/kg intraduodenal, rat, 4 hours), the inhibition in vivo at 30 mg/kg came to 79%. Also, in assay [1] (setting [5]), the inhibition in vivo at 100 mg/kg stood at 95.1%. Besides, the results for the “Inhibition on Water-Immersion stress-induced erosions” value in assay [2] (30 mg/kg oral) and in assay [2] (100 mg/kg oral) were 66% and 87%, respectively. In addition, the results for the “Inhibition on HCl--Ethanol-induced Erosions” value in assay [3] (10 mg/kg oral) and in assay [3] (30 mg/kg oral) were 37% and 97%, respectively. Besides, the inhibition at 200 µM at H^+ +K^+ ATPase worked out at 92.3%.

For the compound `[O-][S+](Cc1ccccn1)c1cnc2ccccc2n1` (stereo not shown) [Compound No. 2, 2-(2-pyridylmethylsulfinyl)quinoxaline], the inhibition in vivo at 100 mg/kg in assay [1] (setting [5]) was 54.8%. The inhibition at 200 µM on H^+ +K^+ ATPase turned out to be 96.8%.

Consider `Cc1nc2ccccc2nc1[S+]([O-])Cc1ccccn1` (stereo not shown) [Compound No. 3, 3-methyl-2-(2-pyridylmethylsulfinyl)quinoxaline], for which the inhibition in vivo at 100 mg/kg in assay [1] (setting [5]) amounted to 54.7%. Moreover, the inhibition at 200 µM at H^+ +K^+ ATPase came out at 99.5%.

In the case of `Cc1nc2cccnc2nc1[S+]([O-])Cc1ccccn1` (stereo not shown) [Compound No. 4, 2-methyl-3-(2-pyridylmethylsulfinyl)pyrido[2,3-b]pyrazine], the inhibition in vivo at 100 mg/kg in assay [1] (setting [5]) was determined as 96.7%. In addition, at H^+ +K^+ ATPase, the inhibition at 200 µM was found to be 89.4%.

On to `CN(C)c1ccccc1C[S+]([O-])c1cnc2ccccc2n1` (stereo not shown) [Compound No. 5, 2-(2-dimethylaminobenzylsulfinyl)quinoxaline], for which, in assay [1] (setting [5]), the inhibition in vivo at 100 mg/kg was 55.1%. Further, the inhibition at 200 µM at H^+ +K^+ ATPase was determined as 100%.

On to `Cc1nc2ccccc2nc1[S+]([O-])Cc1ccccc1N(C)C` (stereo not shown) [Compound No. 6, 2-(2-dimethylaminobenzylsulfinyl)-3-methylquinoxaline], for which the inhibition in vivo at 100 mg/kg in assay [1] (setting [5]) stood at 89.6%. Moreover, the inhibition at 200 µM on H^+ +K^+ ATPase is 100%.

`Cc1cc2nc(C)c([S+]([O-])Cc3ccccc3N(C)C)nc2cc1C` (stereo not shown) [Compound No. 7, 2-(2-dimethylaminobenzylsulfinyl)-3,6,7-trimethylquinoxaline]: the inhibition in vivo at 100 mg/kg in assay [1] (setting [5]) amounted to 46.9%. Besides, on H^+ +K^+ ATPase, the inhibition at 200 µM was 80.8%.
